Laboratory results from publication PMC5412445, “ZeGlobalTox: An Innovative Approach to Address Organ Drug Toxicity Using Zebrafish” (International Journal of Molecular Sciences, 2017).
Entries after “also recorded” stand apart in the source; their conditions may differ. Where a name gives a salt, the structure may show the parent alone.

What was measured:
[1] = tested on: wild type zebrafish embryos; experiment: in vivo; format: in vivo; conditions: embryos incubated 3 to 96 hpf; 5 logarithmic concentrations 0.1 µM to 1 mM; 1% DMSO
From the text: (§1) Several issues were considered when planning the experimental protocol. The main concern was that drug-induced mortality and/or developmental toxicity (teratogenicity) could mask possible organ-toxicities appearing later in development. […] This preliminary assay allowed for the identification of non-mortal/non-teratogenic concentrations—no observed effect concentration (NOEC)—to use in the following assays. The hypothesis is that NOEC could affect organ physiology (organ toxicity), while uncoupled from putative developmental toxicity side-effects affecting organ development or function. Another consideration was to start drug incubations at 96 hours post fertilization (hpf), when the analysed organs are close to or already developed (Figure 1B). The overall aim is to understand the drug impact on organ physiology and function rather than early embryogenesis. The third consideration was to organize the sequential organ evaluation during the experimental and drug incubation time.
(§2) 1% DMSO, which is the constant solvent concentration in all conditions, was used as the negative control.
(§3) Thus, 20 wild type (wt) zebrafish embryos per condition were incubated with tested compounds from 3 to 96 hpf. The test was performed in 5 logarithmic concentrations per drug (from 0.1 µM to 1 mM). Each larva was analysed for mortality, body deformity, edema, tail detachment, pigmentation, heart activity, heart edema, and motor activity. […] DMSO 1% was used as the negative control in all experiments.

[2] = tested on: humans; conditions: known toxicity in humans, ref TOXNET (HSDB), Side effects (EMBL), drugs.com, cited from earlier work; for Neurotoxicity (toxicity in humans): [22],[30],[31],[34],[35]; for Cardiotoxicity (toxicity in humans) / Hepatotoxicity (toxicity in humans): ema.europa; for Cardiotoxicity (toxicity in humans): [19],[20],[21]; for Hepatotoxicity (toxicity in humans): [24],[26],[27],[32],[33]
[3] = tested on: zebrafish larvae liver; experiment: ZeGlobalTox hepatotoxicity: Oil Red O staining (steatosis and yolk lipid accumulation); conditions: 132 hpf; for Percentage of larvae presenting steatosis: 36 h drug incubation at NOEC (EtOH 2%, MPTP 100 µM), DMSO 24.44%
Method: In order to assess drugs producing steatosis and yolk lipid accumulation, and subsequent to the RFP filtered images being acquired, zebrafish larvae were stained with Oil Red O. Larvae and were sorted into steatosis positive or negative, yolk lipid accumulation, or both (see materials and methods).
For the ZeGlobalTox assay, fertilized Tg(cmlc2:GFP; fabp10:RFP; ela31:EGFP) zebrafish embryos were collected in E3 medium (5 mM NaCl, 0.17 mM KCl, 0.33 mM CaCl2, 0.33 mM, MgSO4) in Petri dishes. At 3, 24, and 48 hpf, dishes were observed and all not fertilized, abnormal, or coagulated eggs were discarded. At 96 hpf, 20 larvae per condition were incubated with the NOECs from the different drugs and allowed to develop until 132 hpf at 28.5 °C.
After 36 h of drug incubation (132 hpf), embryos are fixed in 4% paraformaldehyde (158127-500G, Sigma-Aldrich, Saint Louis, MO, USA) for 2–4 h at room temperature (RT) and then are 3× washed with PBS.
In order to detect the presence of steatosis and yolk lipid retention, zebrafish larvae were stained with Oil Red O (O0625-25G, Sigma-Aldrich, Saint Louis, MO, USA) as described in [77]. Briefly, the skin pigment from fixed larvae is removed by incubating with bleaching solution (for 10 mL: 6 mL H2O, 0.25 mL 20× SSC, 0.5 mL formamide, 3.3 mL H2O2) during 20 min at RT. Then, the larvae are 5× washed with PBS. Bleached embryos are first submerged in 85% Propylene glycol (PG) (134368-1L, Sigma-Aldrich, Saint Louis, MO, USA) for 10 min and then in 100% PG for another 10 min before staining them with Oil Red O 0.5% in 100% PG (overnight, at RT and with gentle rocking). Oil Red O stained embryos are washed in 100% PG for 30 min, 50 min in 85% PG, and 40 min in 85% PG with an equal volume of PBS. Finally, embryos are washed 1× with PBS before adding 80% glycerol (G7757-500ML, Sigma-Aldrich, Saint Louis, MO, USA). Bright field images are taken to detect both steatosis and yolk lipid accumulation. […] Yolk lipid retention is considered positive when a red strong signal is observed in the yolk area (Figure 5F).
DMSO 1% treated larvae were used as the negative control group.

[4] = in vivo; format: in vivo; conditions: zebrafish, in vivo; mortality; embryos incubated 3 to 96 hpf; 5 logarithmic concentrations 0.1 µM to 1 mM; 1% DMSO
From the text: as §1, §2, §3

[5] = tested on: zebrafish larvae heart; experiment: ZeGlobalTox cardiotoxicity evaluation (heart video, ZeCardio software); format: in vivo, zebrafish (Danio rerio); conditions: 100 hpf, 4 h after drug incubation at NOEC (haloperidol 10 µM)
Method: Four cardiac parameters were evaluated to assess whether a compound was cardiotoxic: heart rate (beats per minute, BPM), QTc prolongation, ejection fraction (EJF), and cardiac arrest. […] 1% DMSO was used as the negative control.
Cardiotoxicity evaluation was performed from 96 hpf, when the zebrafish heartbeat is already stabilised, so the analysis might not be altered by unstable beating. Zebrafish hearts were video-recorded at 4 h after drug incubation (100 hpf) and analysed using the ZeCardio® β software (Figure 3A).
After 4 h of drug incubation (100 hpf), zebrafish larvae were anesthetized by immersion in […] tricaine methanesulfonate (A4050, Sigma-Aldrich, Saint Louis, MO, USA)/E3 solution. […] The 1% DMSO treated embryos were used as negative cardiotoxic controls. Embryos were positioned in an agarose based mold to allow their appropriate orientation under the fluorescence stereo microscope (Olympus MVX10). Individual fluorescent hearts were recorded during 60 s each (Figure 6A). Videos were acquired with a high-speed recording camera (Hamamatsu C11440 ORCA-flash 2.8) and analysed with the ZeCardio® β software to extract different cardiac parameters—heart rate, cardiac arrest, QTc prolongation, and Ejection Fraction (EJF) (Figure 6B).
ZeCardio® β software, developed by ZeClinics and currently in β status, provides a graphical user interface (GUI) that facilitates the semi-automatic analysis of living heart videos. Interactive analysis of the different parameters functions as follows: The user draws a line along the heart axis, from ventricle to atrium, to initiate the calculation. […] All lines can be subjected to modification of their angles and lengths.
Heart beat frequency for each chamber is detected and frequencies are presented in the GUI as a mean. A plot distribution is used for assessing beat stability over time (Figure 6F). In the same fashion, chamber specific cardiac arrest is measured as the longest beating pause (Figure 6H). No beating chambers and/or incorrect bpm can be manually flagged when detected.
For calculation of the QTc interval (linearly corrected QT interval), the Framingham formula (QTc = QT + 0.154 (1 − RR)) was adjusted for zebrafish as QTc = QT + 0.154 (2.66 − RR). RR = 6.6 ms/measured bpm is applied (Figure 6G). Finally, the Ejection Fraction, calculated as the maximal dilatation (the diastolic diameter, DD) versus the maximal contraction (systolic diameter, SD) is measured in % as EF% = (DD − SD)/DD*100 (Figure 6G). Computed values for the described parameters were exported in .csv format (Figure 6H).

[6] = tested on: zebrafish larvae; experiment: ZeGlobalTox neurotoxicity evaluation (locomotion, light/dark trial); format: in vivo, zebrafish (Danio rerio); conditions: 120 hpf, drug from 96 hpf at NOEC (MPTP 100 µM, paracetamol 2600 µM)
Method: By 5 dpf, zebrafish larvae perform spontaneous swimming and their visual system is fully developed. Therefore, behavioural experiments were performed from this time point (Figure 4A). Deviations in total distance moved, in response to photo-visual stimulation, were analysed as a direct measurement of neurotoxicity. Thus, drugs increasing or decreasing total distance moved when compared to the DMSO-only group were considered neurotoxic. As the positive neurotoxic control we used MPTP, which has been identified as a neurotoxic drug in humans and zebrafish.
Immediately after heart video acquisition, larvae are washed with E3 medium to remove tricaine methanesulfonate from the solution. Fresh drug solution is added and the larvae are transferred individually in a volume of 150 µL to 96 well plates.
Neurotoxicity is analysed at 120 hpf by locomotion assessment using the EthoVision XT 11.5 software and the DanioVision device from Noldus Information Technologies, Wageningen, The Netherlands. This closed system consists of a camera placed above a chamber with circulating water and a temperature sensor set at 28 °C. The 96-well plates are placed in the chamber, which can then be illuminated with white light using the software. Larvae are then left for 20 min under these conditions and with the lights on to help their acclimation. Finally, larvae locomotion is measured during 50′ under the following light/dark conditions: 10′ darkness-10′ Light-10′ darkness-10′ Light-10′ darkness. Total distance moved (in mm) is acquired under this light/dark trial. Due to circadian rhythms, all locomotion assays were performed from 13:00 pm onwards to ensure steady activity of the zebrafish.
Neurotoxicity is assessed by comparing locomotion differences among the tested compounds (solved in DMSO) and the negative control group (DMSO 1%-only).

[7] = tested on: zebrafish larvae; design: method as in PMID 16408054, PMID 22744888; conditions: ref [50],[57]; cited from earlier work

SMILES	96 hpf NOEC [1]	Neurotoxicity (toxicity in humans) [2]	Cardiotoxicity (toxicity in humans) [2]	Hepatotoxicity (toxicity in humans) [2]	Percentage of larvae presenting steatosis [3]	96 hpf LOEC [1]	LC50 [4]	Heart rate (beats per minute) compared to DMSO-only [5]	Longest cardiac arrest compared to DMSO-only [5]	QTc interval compared to DMSO-only [5]	Motility (total distance moved) compared to DMSO [6]	Impact on the heart rate in zebrafish larvae [7]	Percentage of larvae presenting yolk lipid retention ([3]; 36 h drug incubation at NOEC (paracetamol 2600 µM), DMSO 22.22%)
NNC(=O)c1ccncc1 [Isoniazid, isoniazid]	1000.00 µM	Toxic ^1,2,3	Safe	Toxic ^1,2,3	60%	–	–	–	–	–	–	–	–
C[C@]12CC[C@H](O)C[C@H]1CC[C@@H]1[C@@H]2C[C@@H](O)[C@]2(C)[C@@H](C3=CC(=O)OC3)CC[C@]12O [Digoxigenin, digoxigenin]	100.00 µM	–	Toxic ^1	–	55%	1000.00 µM	–	–	–	–	–	–	–
CC(C)NCC(O)COc1cccc2[nH]ccc12 (stereo not shown) [Pindolol, pindolol]	–	Toxic ^2,3	Toxic ^1,2,3	Safe	–	1000 µM	> 1000 µM	decreased the heart rate	Longer cardiac arrest	QTc interval prolongation; also recorded: increased QTc	increased motility	–	–
CNCC(O)c1ccc(O)c(O)c1.Cl (racemic) [(±)-Epinephrine HCL, (±)-epinephrine hydrochloride]	1000.00 µM	Toxic ^1,2,3	Toxic ^1,2,3	Safe	80%	–	–	–	–	–	increased motility	–	–
CC(=O)O[C@@]12CO[C@@H]1C[C@H](O)[C@@]1(C)C(=O)[C@H](O)C3=C(C)[C@@H](OC(=O)[C@H](O)[C@@H](NC(=O)OC(C)(C)C)c4ccccc4)C[C@@](O)([C@@H](OC(=O)c4ccccc4)[C@H]21)C3(C)C [Docetaxel, docetaxel]	–	Toxic ^1,2,3	Toxic ^2,3	Toxic ^1,2,3	–	100.00 µM	–	decreased the heart rate	Longer cardiac arrest	–	increased motility	–	–
CN1CCN(CCCN2c3ccccc3Sc3ccc(C(F)(F)F)cc32)CC1 [Trifluoperazine HCL, trifluoperazine hydrochloride]	10 µM	Toxic ^1,2,3	Toxic ^1,2,3	Toxic ^1,2,3	85%	100 µM	31.6 µM	decreased the heart rate	Longer cardiac arrest	–	Decreased motility	–	–
CC(=O)Nc1ccc(O)cc1 [Acetaminophen]	–	Toxic ^2,3	Toxic ^1,2,3	Toxic ^1,2,3 [24]	–	–	–	–	–	–	Decreased motility	no impact	60%
CC[C@]1(O)C[C@H]2CN(CCc3c([nH]c4ccccc34)[C@@](C(=O)OC)(c3cc4c(cc3OC)N(C=O)[C@H]3[C@@](O)(C(=O)OC)[C@H](OC(C)=O)[C@]5(CC)C=CCN6CC[C@]43[C@@H]65)C2)C1 [Vincristine, vincristine]	–	Toxic ^1,2,3	Toxic ^1,2,3	Safe	–	100 µM	31.6 µM	decreased the heart rate	Longer cardiac arrest	–	increased motility	–	–
CN1CC=C(c2ccccc2)CC1 [MPTP, 1-methyl-4-phenyl-1,2,3,6-tetrahydropyridine]	–	Toxic [22, 30, 31]	–	–	50%	–	–	–	–	–	Decreased motility	–	–
CC(C)(C)NC(=O)[C@H]1CC[C@H]2[C@@H]3CC[C@H]4NC(=O)C=C[C@]4(C)[C@H]3CC[C@]12C [Finasteride, finasteride]	–	Safe	Safe	Safe	65%	100.00 µM	31.6 µM	–	–	–	–	–	–
